Data published in patent publication US4262128A, “Nitrogen heterocycles” (Burroughs Wellcome Co., priority 1976, dated 1981).

How the values were obtained:
[1] = system: pentagastrin-induced gastric acid secretion; test: Pentagastrin-induced gastric acid secretion in rats; format: in vivo, rat
[2] = system: aspirin-induced gastric ulceration; test: Aspirin-induced gastric ulceration / lesions in rats; format: in vivo, rat; settings: for reduction of aspirin-induced gastric lesions: general statement, no dose
vascular smooth muscle = test: Relaxation of vascular smooth muscle; settings: similar to prostaglandin A and E series; general statement
[3] = system: male normotensive rats Wistar (Charles River) strain; test: Cardiovascular effects in rats (fall in blood pressure, anaesthetised normotensive rats); format: in vivo, rat; settings: i.v.
Method: Male normotensive rats Wistar (Charles River) strain, (250-350 g) were anesthetised (chloroform) prior to cannulation of the left femoral vein and anaesthesia maintained by intravenous chloralose (60 mg/kg). Pulsatile blood pressure was recorded from the left femoral artery with an electronic transducer (Bell and Howell Type 4-327 L221) and integrated heart rate was measured with a cardiotachometer triggered from the arterial pressure waves.
The test compound was administered as a solution in physiological saline by intravenous injection via the femoral cannula. The responses recorded were allowed to return to the preinjection levels between successive administrations.

[4] = system: histamine-induced broncho-constriction; test: Histamine-induced broncho-constriction; format: in vivo, guinea-pig
[5] = system: human platelet rich plasma (PRP); test: Inhibition of ADP-stimulated platelet aggregation (Born aggregometer); format: cell-based
Method: Aggregation of platelets in 1 ml. of fresh humam platelet rich plasma (PRP) was monitored in a Born aggregometer.
The compound to be tested was added to the PRP at the desired concentration, and the resulting mixture incubated at 37° C. for 1 minute after which platelet aggregation was stimulated by the addition of adenosine diphosphate (ADP) to a concentration of 5 μM.
The anti-aggregatory effect of the compound was assessed by measuring the percentage inhibition of platelet aggregation in the presence of the compound as compared when it was completely absent.

rat = test: Cardiovascular effects in the rat (blood pressure and heart rate, with and without propranolol or atropine); format: in vivo
dogs = test: Urine volume in dogs, intravenous infusion; format: in vivo, dog
[6] = system: electrically-induced arterial thrombosis; test: Electrically-induced arterial thrombosis in anaesthetised rabbits; format: in vivo, rabbit; settings: intravenous infusion 250 μg/min
[7] = Compound 14 (m.p. 96°-98°) 2 mg/kg i.v. with propranolol 3 mg/kg
[8] = Compound 14 (m.p. 96°-98°) 2 mg/kg i.v., no propranolol
[9] = Compound 14 (m.p. 96°-98°) 5 mg/kg i.v. with propranolol 3 mg/kg
[10] = Compound 14 (m.p. 96°-98°) 5 mg/kg i.v., no propranolol

CCCCCC(=O)CCN1C(=O)NC(=O)C1CCCCCCC(=O)O (stereo not shown) [Example 88, 5-(6-carboxyhexyl)-1-(3-oxooctyl)hydantoin]
inhibition of pentagastrin-induced gastric acid secretion ([1]; general statement, no dose): inhibit pentagastrin-induced gastric acid secretion | reduction of aspirin-induced gastric lesions [2]: reduce the formation of aspirin-induced gastric lesions

CCCCC(C)(C)C(O)CCN1C(=O)NC(=O)C1CCCCCCC(=O)O (stereo not shown) [Compound 9, 5-(6-Carboxyhexyl)-1-(3-hydroxy-4,4-dimethyloctyl)hydantoin]
relaxation of vascular smooth muscle (vascular smooth muscle): relaxation of vascular smooth muscle | Mean fall in blood pressure ([3]; 3 mg/kg): 22 mmHg | antagonism of histamine induced broncho-constriction (PGE1-like) ([4]; general statement, no dose): mimics the effect of PGE1 of antagonising histamine induced broncho-constriction | antagonism of histamine-induced broncho-constriction ([4]; intravenous injection 50 μg/kg, anaesthetised guinea-pigs): completely anatagonise

O=C(O)CCCCCCC1C(=O)NC(=O)N1CCC(O)C1CCC1 (stereo not shown) [Compound 11 (114°-116°), 5-(6-Carboxyhexyl)-1-(3-hydroxy-3-cyclobutylpropyl)hydantoin]
relative potency with respect to PGE1 (inhibition of platelet aggregation) [5]: 5.2 ×

CC(C)NCC(O)COc1cccc2ccccc12 (stereo not shown) [propranolol, reference compound]
effect of concurrent propranolol on hypotensive action of Compound 14 (rat; concurrent dose of propranolol): without significantly effecting the hypotensive action | effect of concurrent propranolol on tachycardia caused by Compound 14 (rat; concurrent dose of propranolol): considerably reduced the tachycardia

O=C(O)CCCCCCC1C(=O)NC(=O)N1CCCCOc1ccccc1 (stereo not shown) [Example 79b, 5-(6-carboxyhexyl)-1-(4-phenoxybutyl)hydantoin]
inhibition of pentagastrin-induced gastric acid secretion ([1]; general statement, no dose): inhibit pentagastrin-induced gastric acid secretion | reduction of aspirin-induced gastric lesions [2]: reduce the formation of aspirin-induced gastric lesions

CN1[C@@H]2CC[C@H]1C[C@@H](OC(=O)C(CO)c1ccccc1)C2 (stereo partly shown) [atropine, reference compound]
effect of concurrent atropine on hypotensive effect of Compound 14 (rat; atropine 2 mg/kg i.v.): did not significantly affect | effect of concurrent atropine on tachycardiac effect of Compound 14 (rat; atropine 2 mg/kg i.v.): did not significantly affect

O=C(O)CCCCCCC1C(=O)NC(=O)N1CCC(O)C1CCCC1 (stereo not shown) [Compound 12 (m.p. 116-117°), 5-(6-Carboxyhexyl)-1-(3-hydroxy-3-cyclopentylpropyl)hydantoin]
inhibition at 0.0005 µg/mL ([5]; Homo sapiens, Platelet, 0.5 ng/ml, ADP 5 μM): 25% | inhibition at 0.001 µg/mL ([5]; Homo sapiens, Platelet, 1.0 ng/ml, ADP 5 μM): 51% | inhibition at 0.002 µg/mL ([5]; Homo sapiens, Platelet, 2.0 ng/ml, ADP 5 μM): 79% | inhibition at 0.004 µg/mL ([5]; Homo sapiens, Platelet, 4.0 ng/ml, ADP 5 μM): 94% | relative potency with respect to PGE1 (inhibition of platelet aggregation) [5]: 12.5 ×

CCCCCCC(O)CCN1C(=O)NC(=O)C1CCCCCCC(=O)O (stereo not shown) [Compound 6, 5-(6-Carboxyhexyl)-1-(3-hydroxynonyl)hydantoin]
Mean fall in blood pressure ([3]; 3 mg/kg): 40 mmHg

CC(C)(Cc1ccccc1)C(O)CCN1C(=O)NC(=O)C1CCCCCCC(=O)O (stereo not shown) [Example 1, 5-(6-carboxyhexyl)-1-(3-hydroxy-4,4-dimethyl-5-phenylpentyl)-hydantoin]
relaxation of vascular smooth muscle (vascular smooth muscle): relaxation of vascular smooth muscle

O=C(O)CCCCCCC1C(=O)NC(=O)N1CCC(O)C1CCCCC1 (stereo not shown) [Compound 14 (m.p. 96°-98°), 5-(6-Carboxyhexyl)-1-(3-hydroxy-3-cyclohexylpropyl)hydantoin]
hypotensive effect in the rat (rat; i.v., in words): substantial hypotensive effect | tachycardia accompanying the hypotension (rat; i.v., in words): accompanied by tachycardia | relative potency with respect to PGE1 (inhibition of platelet aggregation) [5]: 16 ×

CCCCCC(=O)CCN1C(=O)N(C)C(=O)C1CCCCCCC(=O)O (stereo not shown) [Compound 90, 5-(6-Carboxyhexyl)-3-methyl-1-(3-oxooctyl)hydantoin]
inhibition of pentagastrin-induced gastric acid secretion ([1]; general statement, no dose): inhibit pentagastrin-induced gastric acid secretion | reduction of aspirin-induced gastric lesions [2]: reduce the formation of aspirin-induced gastric lesions | protection against aspirin-induced gastric ulceration ([2]; oral dose of 1 mg/kg): 80%

CC(C)(C)C(O)CCN1C(=O)NC(=O)C1CCCCCCC(=O)O (stereo not shown) [Compound 4 (m.p. 144°-146°), 5-(6-Carboxyhexyl)-1-(3-hydroxy-4,4-dimethylpentyl)hydantoin]
relative potency with respect to PGE1 (inhibition of platelet aggregation) [5]: 0.05 ×

CCCCC[C@H](O)/C=C/[C@H]1[C@H](O)CC(=O)[C@@H]1C/C=C\CCCC(=O)O [PGE2, reference compound]
Mean fall in blood pressure ([3]; 4 μg/kg): 28 mmHg | Mean fall in blood pressure ([3]; 16 μ/kg): 44 mmHg

CCCCCC(O)CCN1C(=O)NC(=O)C1CCCCCCC(=O)O (stereo not shown) [Compound 2, 5-(6-Carboxyhexyl)-1-(3-hydroxyoctyl)hydantoin]
inhibition of pentagastrin-induced gastric acid secretion ([1]; general statement, no dose): inhibit pentagastrin-induced gastric acid secretion | inhibition of pentagastrin-induced gastric acid secretion ([1]; intravenous dose of 30 μg/kg, rats): completely inhibited | increase of urine volume (dogs): increase urine volume | Mean fall in blood pressure ([3]; 10 μg/kg): 14 mmHg | Mean fall in blood pressure ([3]; 1 mg/kg): 42 mmHg | reduction of aspirin-induced gastric lesions [2]: reduce the formation of aspirin-induced gastric lesions

O=C(O)CCCCCCC1C(=O)NC(=O)N1CCC(O)C1CCCCC1 (stereo not shown) [Compound 14, 5-(6-Carboxyhexyl)-1-(3-hydroxy-3-cyclohexylpropyl)hydantoin]
Mean fall b.p. (±SD) (rat; [7]): 28 ± 5 | Mean rise hrt.rate (±S.D) (rat; [7]): 6.5 ± 3 | Mean fall b.p. (±SD) (rat; [8]): 28 ± 6.5 | Mean rise hrt.rate (±S.D) (rat; [8]): 44 ± 7 | Mean fall b.p. (±SD) (rat; [9]): 27 ± 7.5 | Mean rise hrt.rate (±S.D) (rat; [9]): 11.5 ± 2.5 | Mean fall b.p. (±SD) (rat; [10]): 34 ± 3 | Mean rise hrt.rate (±S.D) (rat; [10]): 47.5 ± 2.5

CCCCC[C@H](O)/C=C/[C@H]1[C@H](O)CC(=O)[C@@H]1CCCCCCC(=O)O [PGE1, reference compound]
inhibition at 0.015 µg/mL ([5]; Homo sapiens, Platelet, 15 ng/ml, ADP 5 μM): 33% | inhibition at 0.02 µg/mL ([5]; Homo sapiens, Platelet, 20 ng/ml, ADP 5 μM): 47% | inhibition at 0.03 µg/mL ([5]; Homo sapiens, Platelet, 30 ng/ml, ADP 5 μM): 63% | inhibition at 0.04 µg/mL ([5]; Homo sapiens, Platelet, 40 ng/ml, ADP 5 μM): 69%

CCCCCC(O)CCN1C(=O)NC(=O)C1CCCCCCC(=O)O (stereo not shown) [Compound 2 (m.p. 76°-78°), 5-(6-Carboxyhexyl)-1-(3-hydroxyoctyl)hydantoin]
relative potency with respect to PGE1 (inhibition of platelet aggregation) [5]: 12.5 × | reduction of electrically-induced arterial thrombosis [6]: reduce electrically-induced arterial thrombosis
